Assays:
[1] = Ratio of drug concentration in brain to plasma of BALB/c nude mouse xenografted with human U-87 MG cells harboring IDH2 R140Q mutant at 50 mg/kg measured after 24 hrs by LC/MS/MS analysis; type: ADME, organism-based; conditions: read-out: BPR
[2] = AUC(0 to infinity) in male Sprague-Dawley rat at 5 mg/kg, po measured after 24 hrs by LC/MS/MS analysis; type: ADME, organism-based; conditions: in vivo
[3] = Inhibition of IDH1 R132H mutant in human TF-1 cells incubated for 72 hrs by measuring 2-HG production by fluorescence based analysis; type: functional, cell-based; conditions: TF-1, 72 h
[4] = Clearance in male Sprague-Dawley rat at 1 mg/kg, iv measured after 24 hrs by LC/MS/MS analysis; type: ADME, organism-based; conditions: in vivo
[5] = Clearance in male ICR mouse at 2.5 mg/kg, iv measured after 8 hrs by LC/MS/MS analysis; type: ADME, organism-based; conditions: in vivo
[6] = Apparent permeability across apical to basolateral side in human Caco-2 cells at 10 uM incubated for 1 hrs by LC-MS/MS analysis
[7] = AUC(0 to t) in male Sprague-Dawley rat at 5 mg/kg, po measured after 144 hrs by LC/MS/MS analysis; type: ADME, organism-based; conditions: in vivo
[8] = biological target: Isocitrate dehydrogenase [NADP], mitochondrial (Homo sapiens, UniProt P48735, R140Q); test: Inhibition of IDH2 R140Q mutant (unknown origin) using alpha-ketoglutarate as substrate preincubated with compound for 16 hrs followed by substrate addition and measured after 1 hr in presence of NADPH by fluorescence based analysis
Chain of Isocitrate dehydrogenase [NADP], mitochondrial (P48735 40-452 R140Q limits assumed): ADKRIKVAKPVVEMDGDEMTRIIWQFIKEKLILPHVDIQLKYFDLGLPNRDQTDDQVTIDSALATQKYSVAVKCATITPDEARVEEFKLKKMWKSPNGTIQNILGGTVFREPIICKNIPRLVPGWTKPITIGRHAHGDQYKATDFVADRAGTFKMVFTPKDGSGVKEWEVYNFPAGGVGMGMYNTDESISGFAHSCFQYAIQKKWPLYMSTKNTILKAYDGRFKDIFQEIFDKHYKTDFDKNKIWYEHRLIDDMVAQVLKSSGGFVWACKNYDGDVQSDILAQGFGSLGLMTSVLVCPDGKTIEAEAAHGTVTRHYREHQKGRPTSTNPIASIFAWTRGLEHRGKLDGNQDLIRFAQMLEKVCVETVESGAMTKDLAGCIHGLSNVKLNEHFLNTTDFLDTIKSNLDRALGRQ

[9] = Inhibition of IDH2 R140Q mutant in human TF-1 cells incubated for 72 hrs by measuring 2-HG production by fluorescence based analysis; type: functional, cell-based; conditions: TF-1, 72 h
[10] = Half life in male Sprague-Dawley rat at 1 mg/kg, iv measured after 24 hrs by LC/MS/MS analysis; type: ADME, organism-based; conditions: in vivo
[11] = AUC(0 to t) in male ICR mouse at 10 mg/kg, po measured upto 24 hrs by LC/MS/MS analysis; type: ADME, organism-based; conditions: in vivo
[12] = biological target: Voltage-gated inwardly rectifying potassium channel KCNH2 (Homo sapiens, UniProt Q12809); test: Inhibition of hERG expressed in CHO cells by manual patch-clamp assay; type: toxicity, cell-based
Chain of Voltage-gated inwardly rectifying potassium channel KCNH2 (Q12809 whole entry): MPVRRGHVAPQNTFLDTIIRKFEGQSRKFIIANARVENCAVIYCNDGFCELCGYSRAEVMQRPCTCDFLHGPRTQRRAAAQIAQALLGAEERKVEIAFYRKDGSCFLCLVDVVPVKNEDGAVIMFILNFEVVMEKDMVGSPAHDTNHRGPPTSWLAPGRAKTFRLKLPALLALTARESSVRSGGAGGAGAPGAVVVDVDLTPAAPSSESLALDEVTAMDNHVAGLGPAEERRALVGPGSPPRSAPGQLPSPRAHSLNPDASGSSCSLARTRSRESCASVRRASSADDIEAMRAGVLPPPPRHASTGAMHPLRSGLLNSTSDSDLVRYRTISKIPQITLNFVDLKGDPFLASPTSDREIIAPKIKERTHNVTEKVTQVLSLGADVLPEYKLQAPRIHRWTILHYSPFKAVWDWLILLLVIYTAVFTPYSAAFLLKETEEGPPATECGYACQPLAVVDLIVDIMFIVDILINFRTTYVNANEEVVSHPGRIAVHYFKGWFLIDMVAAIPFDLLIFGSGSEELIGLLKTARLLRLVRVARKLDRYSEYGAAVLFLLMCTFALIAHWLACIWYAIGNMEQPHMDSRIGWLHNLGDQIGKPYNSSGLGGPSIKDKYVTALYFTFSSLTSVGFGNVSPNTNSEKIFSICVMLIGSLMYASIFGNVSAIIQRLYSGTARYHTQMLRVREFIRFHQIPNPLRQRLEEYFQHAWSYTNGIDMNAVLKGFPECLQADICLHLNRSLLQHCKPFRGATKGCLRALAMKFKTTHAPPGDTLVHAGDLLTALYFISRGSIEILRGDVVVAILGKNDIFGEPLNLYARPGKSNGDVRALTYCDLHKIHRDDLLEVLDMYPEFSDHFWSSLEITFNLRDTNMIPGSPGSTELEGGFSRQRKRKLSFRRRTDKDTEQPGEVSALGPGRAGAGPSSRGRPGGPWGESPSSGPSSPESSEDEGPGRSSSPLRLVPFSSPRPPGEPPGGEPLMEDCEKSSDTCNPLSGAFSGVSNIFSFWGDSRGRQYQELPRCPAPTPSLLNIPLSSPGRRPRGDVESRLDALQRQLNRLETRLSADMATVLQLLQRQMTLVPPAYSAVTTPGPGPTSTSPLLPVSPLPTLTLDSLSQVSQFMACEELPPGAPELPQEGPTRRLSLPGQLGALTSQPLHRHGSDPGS

[13] = Half life in male Sprague-Dawley rat at 5 mg/kg, po measured after 24 hrs by LC/MS/MS analysis; type: ADME, organism-based; conditions: in vivo
[14] = AUC(0 to t) in male ICR mouse at 2.5 mg/kg, iv measured after 24 hrs by LC/MS/MS analysis; type: ADME, organism-based; conditions: in vivo
[15] = Volume of distribution at steady state in male ICR mouse at 2.5 mg/kg, iv measured after 8 hrs by LC/MS/MS analysis; type: ADME, organism-based; conditions: in vivo, read-out: Vdss
[16] = Inhibition of IDH2 R172K mutant in human HEK293 cells incubated for 72 hrs by measuring 2-HG production by fluorescence based analysis; type: functional, cell-based; conditions: HEK293, 72 h
[17] = Oral bioavailability in male Sprague-Dawley rat at 5 mg/kg measured after 24 hrs by LC/MS/MS analysis; type: ADME, organism-based; conditions: in vivo
[18] = Inhibition of IDH1 R132H mutant in human U-87 MG cells incubated for 72 hrs by measuring 2-HG production by fluorescence based analysis; type: functional, cell-based, U-87MG ATCC; conditions: Homo sapiens, U-87 MG, 72 h
Adenosine receptor A3 = biological target: T1, Adenosine receptor A3 (Homo sapiens, UniProt P0DMS8); test: Inhibition of adenosine A3 receptor (unknown origin); type: toxicity
T1 sequence (P0DMS8 whole entry): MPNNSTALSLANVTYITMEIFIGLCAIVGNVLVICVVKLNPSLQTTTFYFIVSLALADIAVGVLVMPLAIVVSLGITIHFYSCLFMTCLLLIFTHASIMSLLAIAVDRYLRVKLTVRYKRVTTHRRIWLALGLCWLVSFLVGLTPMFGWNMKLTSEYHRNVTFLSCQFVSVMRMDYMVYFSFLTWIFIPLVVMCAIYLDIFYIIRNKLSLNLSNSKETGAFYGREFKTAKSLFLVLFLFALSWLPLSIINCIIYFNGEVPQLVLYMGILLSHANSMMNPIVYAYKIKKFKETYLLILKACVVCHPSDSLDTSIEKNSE

[19] = AUC(0 to infinity) in male ICR mouse at 10 mg/kg, po measured after 8 hrs by LC/MS/MS analysis; type: ADME, organism-based; conditions: in vivo
[20] = In vivo inhibition of 2-HG in BALB/c nude mouse xenografted with human U-87 MG cells harboring IDH2 R140Q mutant at 25 mg/kg, po measured after 16 hrs post dose; type: functional
UGT1A1 = biological target: T2, UGT1A1 (Homo sapiens, UniProt P22309); test: Inhibition of UGT1A1 (unknown origin) at 10 uM relative to control; type: ADME
T2 sequence (P22309 whole entry): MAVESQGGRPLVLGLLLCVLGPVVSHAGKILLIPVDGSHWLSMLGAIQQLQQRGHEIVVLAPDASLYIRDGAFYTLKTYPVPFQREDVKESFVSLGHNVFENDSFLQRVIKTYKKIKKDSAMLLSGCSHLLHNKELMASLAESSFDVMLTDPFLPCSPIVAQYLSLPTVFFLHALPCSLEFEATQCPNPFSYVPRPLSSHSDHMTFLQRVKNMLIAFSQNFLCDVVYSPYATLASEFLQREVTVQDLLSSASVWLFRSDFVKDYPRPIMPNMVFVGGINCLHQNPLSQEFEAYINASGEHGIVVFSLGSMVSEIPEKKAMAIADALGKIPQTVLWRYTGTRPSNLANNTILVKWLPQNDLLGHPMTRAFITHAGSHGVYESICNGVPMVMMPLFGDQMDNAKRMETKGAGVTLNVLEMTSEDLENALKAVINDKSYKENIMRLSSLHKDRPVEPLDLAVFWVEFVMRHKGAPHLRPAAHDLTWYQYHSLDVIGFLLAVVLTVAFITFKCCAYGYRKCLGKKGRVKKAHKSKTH

[21] = AUC(0 to t) in male Sprague-Dawley rat at 1 mg/kg, iv measured after 144 hrs by LC/MS/MS analysis; type: ADME, organism-based; conditions: in vivo
[22] = In vivo inhibition of 2-HG in BALB/c nude mouse xenografted with human HT-1080 cells harboring IDH1 R132C mutant at 25 mg/kg, po measured after 16 to 40 hrs post dose; type: functional; conditions: time 16-40 hrs
[23] = In vivo inhibition of 2-HG in BALB/c nude mouse xenografted with human U-87 MG cells harboring IDH2 R140Q mutant at 25 mg/kg, po measured after 40 hrs post dose; type: functional; conditions: Mus musculus, BALB/c, U-87 MG
[24] = Ratio of drug concentration in brain to plasma of BALB/c nude mouse xenografted with human U-87 MG cells harboring IDH2 R140Q mutant at 50 mg/kg measured after 16 hrs by LC/MS/MS analysis; type: ADME, organism-based; conditions: read-out: BPR
[25] = AUC(0 to infinity) in male Sprague-Dawley rat at 1 mg/kg, iv measured after 24 hrs by LC/MS/MS analysis; type: ADME, organism-based; conditions: in vivo
[26] = Metabolic stability in male SD rat liver microsomes assessed as parent compound remaining at 1 uM measured after 30 mins in presence of NADPH by LC-MS analysis; type: ADME, Microsome; conditions: Sprague-Dawley, read-out: Stability

With `C[C@@H](Nc1nc(N[C@H](C)C(F)(F)F)nc(C2=C(F)[C@H](O)C(F)(F)CC2)n1)C(F)(F)F` [RANOSIDENIB] as the compound, how does the Kp at 24 h [1] read?
Its Kp at 24 h is 2.9.

And the AUC(0-inf) [2]?
Its AUC(0-inf) is 112000 ng·h/mL.

And the IC50 [3]?
The IC50 was 31 nM.

What about the clearance [4] of the same compound?
Its clearance is 0.8 mL/min/kg.

What about the clearance [5] of the same compound?
Its clearance is 3.3 mL/min/kg.

And the Papp A→B at 1 h, 10 µM [6]?
The Papp A→B at 1 h, 10 µM was 53.3 ×10⁻⁶ cm/s.

And the AUC(0-t) at 144 h [7]?
Its AUC(0-t) at 144 h is 96600 ng·h/mL.

What about the IC50 [8] of the same compound?
The IC50 was 28 nM.

What about the IC50 [9] of the same compound?
The IC50 was 21 nM.

What about the half-life [10] of the same compound?
The half-life was 49.9 h.

What about the AUC(0-t) at 24 h [11] of the same compound?
The AUC(0-t) at 24 h was 35000 ng·h/mL.

What about the IC50 [12] of the same compound?
Its IC50 is greater than 30000 nM.

And the half-life [13]?
Its half-life is 50.4 h.

And the AUC(0-t) at 24 h [14]?
The AUC(0-t) at 24 h was 10400 ng·h/mL.

And the Vd [15]?
The Vd was 2.57 L/kg.

What about the IC50 [16] of the same compound?
The IC50 was 425 nM.

And the bioavailability [17]?
Its bioavailability is 113%.

And the IC50 [18]?
Its IC50 is 50 nM.

What about the IC50 (Adenosine receptor A3) of the same compound?
The IC50 was 8500 nM.

What about the AUC(0-inf) [19] of the same compound?
Its AUC(0-inf) is 62000 ng·h/mL.

And the inhibition in vivo at 25 mg/kg [20]?
The inhibition in vivo at 25 mg/kg was 96%.

And the inhibition at 10 µM (UGT1A1)?
Its inhibition at 10 µM is 46.7%.

And the AUC(0-t) at 144 h [21]?
Its AUC(0-t) at 144 h is 17100 ng·h/mL.

What about the inhibition in vivo at 25 mg/kg [22] of the same compound?
The inhibition in vivo at 25 mg/kg was no less than 90%.

And the inhibition in vivo at 25 mg/kg [23]?
Its inhibition in vivo at 25 mg/kg is 93%.

What about the Kp at 16 h [24] of the same compound?
Its Kp at 16 h is 2.8.

And the AUC(0-inf) [25]?
The AUC(0-inf) was 19800 ng·h/mL.

And the remaining at 0.5 h, 1 µM [26]?
Its remaining at 0.5 h, 1 µM is 99.5%.

— ChEMBL document CHEMBL6103672, “Discovery of HMPL-306 (Ranosidenib), a New Potent and Selective Dual Inhibitor of Mutant IDH1 and 2 in Clinical Development for Cancer Treatment” (ACS Med Chem Lett, 2025)
